# Key:
# [1] = test system: amputated hind legs; experiment: Limb replantation after perfusion of amputated hind legs; assay type: in vivo, rats; settings: rat
# Procedure: Hind legs were amputated from rats, and the major feed arteries for the severed limbs were cannulated for infusion of ATP-SUV, (1 mM ATP) solution. The limbs were perfused with ATP-SUV or control solutions (see Table 1) every 3 hours, or as deemed necessary by the change in tissue ATP levels. The arterial pressure of the limbs was monitored during infusion to decrease the chance of flow-induced injury, and to monitor the overall preservation of the severed limbs (higher perfusion pressures may indicate limb morbidity). Following the preservation period, the limbs were flushed with Ringers to remove traces of ATP-SUV. The limbs were then surgically reattached, and external indices of limb function after anastomoses were evaluated (limb color, evidence of microthrombi, coagulation, limb temperature). The animals prior to and following replantation received heparin to prevent hemostasis. In addition, animals were placed on antibiotic therapy to reduce infection. Control limbs were perfused with vehicle only, vehicle and ATP only, or vehicle and SUVs only.
# [2] = test system: HUVEC; experiment: Vesicle absorption and release of 3H-ATP into HUVEC; assay type: cell-based, human
# Procedure: To determine if ATP is also introduced into cells like carboxyfluorescein, vesicle absorption and release of ATP into HUVEC was followed using the ^3H-ATP-containing vesicles of Example 2. The vesicles were incubated with HUVEC for 5, 10, 15, 30, 45, 60, 90, 120, or 240 minutes. The result shown in FIG. 1 is the partition coefficient of ATP inside the cells after 1 hour. […] When the cells were washed repeatedly there was a significant change in the radioactivity of the cells.
structure (smiles),measurement,setting,value
"Nc1ncnc2c1ncn2[C@@H]1O[C@H](COP(=O)(O)OP(=O)(O)OP(=O)(O)O)[C@@H](O)[C@H]1O [^3H-ATP only, adenosine-5′-triphosphate (ATP)]",Limb outcome,[1],necrosis
same,change in radioactivity of the cells after repeated washes,[2]; 3H-ATP,complete loss of radioactivity
same,"partition coefficient of ATP inside the cells (percent incorporation, rank order)","[2]; after 1 hour, FIG. 1","then ^3H-ATP only, without vesicles"
same,mode of cell entry concluded,[2]; from wash and fusion data,does not enter cells
